Test: CB1 related side-effects: body temperature lowering, LAD
Type: in vivo
Procedure: CB1 related undesired side-effects such as lowering of body temperature, flat body posture, and mydriasis were measured for a number of compounds of the present invention and a number of compounds covered by reference WO-2006/048754.

CCS(=O)(=O)c1ccc2c(c1)nc(CC(C)(C)C)n2CC1CCN(C(C)=O)CC1 [Co. No. 46]
LAD (Lowest Acceptable Dose) at which lowering of body temperature was observed in more than half of the treated animals: >40 mg/kg

CCS(=O)(=O)c1ccc2c(c1)nc(C(C)(C)C)n2CC1CCN(C(C)=O)CC1 [Co. No. 1]
LAD (Lowest Acceptable Dose) at which lowering of body temperature was observed in more than half of the treated animals: >40 mg/kg

CC(C)(C)c1nc2cc(S(=O)(=O)c3ccncc3)ccc2n1CC1CCOCC1 [Co. No. D, reference compound]
LAD (Lowest Acceptable Dose) at which lowering of body temperature was observed in more than half of the treated animals: 10 mg/kg

CCS(=O)(=O)c1ccc2c(c1)nc(C(C)(C)C)n2CC1CCOCC1 [Co. No. F, reference compound]
LAD (Lowest Acceptable Dose) at which lowering of body temperature was observed in more than half of the treated animals: 10 mg/kg

CC(C)(C)c1nc2cc(S(=O)(=O)C3CCCC3)ccc2n1CC1CCOCC1 [Co. No. C, reference compound]
LAD (Lowest Acceptable Dose) at which lowering of body temperature was observed in more than half of the treated animals: 5 mg/kg

CCS(=O)(=O)c1ccc2c(c1)nc(C(C)(C)C)n2CC1CCN(C=O)CC1 [Co. No. 28]
LAD (Lowest Acceptable Dose) at which lowering of body temperature was observed in more than half of the treated animals: >40 mg/kg

Reference: patent US8193369B2, “Benzimidazole cannabinoid agonists” (Janssen Pharmaceutica NV, priority 2007, dated 2012)
